# Results reported in PubChem BioAssay AID330 (DTP/NCI, 2004).
# Values joined by “and” are separate entries in the source; they are usually repeats but may differ in a detail not shown here. Equal values may be shown once. Inconclusive results and toxic doses are left out.
# Tested on: P388 leukemia ip, CD2F1 mice, survival T/C
# Assay: NCI In Vivo Anticancer Drug Screen. Data for tumor model P388 Leukemia (intraperitoneal) in CD2F1 (CDF1) mice
# Details: endpoint: median survival time, higher = longer survival
# Outline: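 Mice carrying the transplanted tumor received test compound or vehicle. Survival was recorded in each group, and the value is the treated-group measurement divided by that of the vehicle-treated control group.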
# [1] = dose: 50.0 mg/kg/injection, schedule: Q01DX009 (ip), vehicle: saline with Tween-80
# [2] = dose: 100.0 mg/kg/injection, schedule: Q01DX009 (ip), vehicle: saline with Tween-80
# [3] = dose: 200.0 mg/kg/injection, schedule: Q01DX009 (ip), vehicle: saline with Tween-80
# [4] = dose: 50.0 mg/kg/injection, schedule: Q01DX005 (ip), vehicle: saline with Tween-80
# [5] = dose: 60.0 mg/kg/injection, schedule: Q01DX005 (ip), vehicle: Klucel (hydroxypropylcellulose) (HPC)
# [6] = dose: 120.0 mg/kg/injection, schedule: Q01DX005 (ip), vehicle: Klucel (hydroxypropylcellulose) (HPC)
# [7] = dose: 400.0 mg/kg/injection, schedule: Q04DX003 (ip), vehicle: saline
# [8] = dose: 50.0 mg/kg/injection, schedule: Q01DX005 (ip), vehicle: Klucel (hydroxypropylcellulose) (HPC)
# [9] = dose: 100.0 mg/kg/injection, schedule: Q01DX005 (ip), vehicle: Klucel (hydroxypropylcellulose) (HPC)
# [10] = dose: 60.0 mg/kg/injection, schedule: Q01DX005 (ip), vehicle: saline with Tween-80
# [11] = dose: 120.0 mg/kg/injection, schedule: Q01DX005 (ip), vehicle: saline with Tween-80
# [12] = dose: 240.0 mg/kg/injection, schedule: Q01DX005 (ip), vehicle: saline with Tween-80
smiles,measurement,setting,value
COc1cc(C/C(=C\c2cc(OC)c(OC)c(OC)c2)[N+](=O)[O-])ccc1OCc1ccccc1,T/C,"dose: 50.0 mg/kg/injection, schedule: Q01DX001 (ip), vehicle: Klucel (hydroxypropylcellulose) (HPC)",93 % of control
same,T/C,"dose: 100.0 mg/kg/injection, schedule: Q01DX001 (ip), vehicle: Klucel (hydroxypropylcellulose) (HPC)",94 % of control
C1CCC2(CC1)NN=C1CCCCC12 (stereo not drawn),T/C,"dose: 12.5 mg/kg/injection, schedule: Q01DX009 (ip), vehicle: other",101 % of control
same,T/C,"dose: 25.0 mg/kg/injection, schedule: Q01DX009 (ip), vehicle: other",110 % of control
same,T/C,"dose: 50.0 mg/kg/injection, schedule: Q01DX009 (ip), vehicle: other",104 % of control
same,T/C,"dose: 100.0 mg/kg/injection, schedule: Q01DX009 (ip), vehicle: other",106 % of control
same,T/C,"dose: 200.0 mg/kg/injection, schedule: Q01DX009 (ip), vehicle: other",116 % of control
Cc1ncc(CO)n1C,T/C,[1],104 % of control
same,T/C,[2],101 % of control
same,T/C,[3],101 % of control
same,T/C,"dose: 400.0 mg/kg/injection, schedule: Q01DX009 (ip), vehicle: saline with Tween-80",113 % of control
C=Cc1c(C)c(OC(C)=O)cc2c1-c1ccc(OC(C)=O)c(C)c1CC2,T/C,"dose: 2.25 mg/kg/injection, schedule: Q01DX009 (ip), vehicle: Klucel (hydroxypropylcellulose) (HPC)",103 % of control
same,T/C,"dose: 4.5 mg/kg/injection, schedule: Q01DX009 (ip), vehicle: Klucel (hydroxypropylcellulose) (HPC)",100 % of control
same,T/C,"dose: 9.0 mg/kg/injection, schedule: Q01DX009 (ip), vehicle: Klucel (hydroxypropylcellulose) (HPC)",94 % of control
same,T/C,"dose: 18.0 mg/kg/injection, schedule: Q01DX009 (ip), vehicle: Klucel (hydroxypropylcellulose) (HPC)",100 % of control
O=C(O)C1=C(C(=O)O)CCC1,T/C,"dose: 25.0 mg/kg/injection, schedule: Q01DX009 (ip), vehicle: distilled water + Tween-80",100 % of control
same,T/C,"dose: 50.0 mg/kg/injection, schedule: Q01DX009 (ip), vehicle: distilled water + Tween-80",91 % of control
same,T/C,"dose: 100.0 mg/kg/injection, schedule: Q01DX009 (ip), vehicle: distilled water + Tween-80",89 % of control
Cc1c(O)c(=O)ccn1CCO,T/C,"dose: 50.0 mg/kg/injection, schedule: Q01DX005 (ip), vehicle: saline",102 % of control and 104 % of control
same,T/C,"dose: 100.0 mg/kg/injection, schedule: Q01DX005 (ip), vehicle: saline",100 % of control and 106 % of control
same,T/C,"dose: 200.0 mg/kg/injection, schedule: Q01DX005 (ip), vehicle: saline",117 % of control and 124 % of control
CC(NC(=O)C(NC(=O)c1ccc[n+](Cc2ccccc2)c1)C(C)C)C(N)=O (stereo not drawn),T/C,"dose: 7.5 mg/kg/injection, schedule: Q01DX005 (ip), vehicle: saline",109 % of control
same,T/C,"dose: 15.0 mg/kg/injection, schedule: Q01DX005 (ip), vehicle: saline",104 % of control
same,T/C,"dose: 30.0 mg/kg/injection, schedule: Q01DX005 (ip), vehicle: saline",98 % of control
O=C1c2ccccc2-c2nc3ccccc3nc21,T/C,[4],94 % of control
same,T/C,"dose: 100.0 mg/kg/injection, schedule: Q01DX005 (ip), vehicle: saline with Tween-80",94 % of control
CC(=O)Nc1nc(C)c(CCCOc2ccc([N+](=O)[O-])cc2)c(=O)[nH]1,T/C,[5],86 % of control
same,T/C,[6],86 % of control
O=C(Nc1cc(Cl)ccc1Cl)O/N=C/c1ccncc1,T/C,[1],93 % of control
same,T/C,[2],94 % of control
same,T/C,[3],94 % of control
CC1=CC(Cc2ccccc2)N(C)C(C#N)C1 (stereo not drawn),T/C,"dose: 12.5 mg/kg/injection, schedule: Q01DX005 (ip), vehicle: saline with Tween-80",101 % of control
same,T/C,"dose: 25.0 mg/kg/injection, schedule: Q01DX005 (ip), vehicle: saline with Tween-80",105 % of control
same,T/C,[4],109 % of control and 116 % of control
Cc1cc(OCc2nc(N)nc(N)c2-c2ccc(Cl)c(Cl)c2)ccc1NS(=O)(=O)c1cccc(S(=O)(=O)F)c1,T/C,"dose: 176.0 mg/kg/injection, schedule: Q04DX003 (ip), vehicle: saline",122 % of control
same,T/C,[7],150 % of control
CC(C)CCC[C@@H](C)[C@H]1CC[C@H]2[C@@H]3CC[C@H]4C[C@@H](N)CC[C@]4(C)[C@H]3CC[C@]12C,T/C,"dose: 6.25 mg/kg/injection, schedule: Q01DX005 (ip), vehicle: Klucel (hydroxypropylcellulose) (HPC)",98 % of control
same,T/C,"dose: 12.5 mg/kg/injection, schedule: Q01DX005 (ip), vehicle: Klucel (hydroxypropylcellulose) (HPC)",97 % of control
same,T/C,"dose: 25.0 mg/kg/injection, schedule: Q01DX005 (ip), vehicle: Klucel (hydroxypropylcellulose) (HPC)",95 % of control
same,T/C,[8],112 % of control
same,T/C,[9],109 % of control
Cn1c2nc(=O)[nH]c(=O)c-2cc2ccccc21,T/C,"dose: 25.0 mg/kg/injection, schedule: Q04DX003 (ip), vehicle: saline with Tween-80",95 % of control
same,T/C,"dose: 50.0 mg/kg/injection, schedule: Q04DX003 (ip), vehicle: saline with Tween-80",93 % of control
same,T/C,"dose: 100.0 mg/kg/injection, schedule: Q04DX003 (ip), vehicle: saline with Tween-80",90 % of control
same,T/C,"dose: 200.0 mg/kg/injection, schedule: Q04DX003 (ip), vehicle: saline with Tween-80",94 % of control
c1nc(N2CCCCC2)c2[nH]cnc2n1,T/C,[8],109 % of control
same,T/C,[9],104 % of control
COc1ccc(S(=O)(=O)F)cc1NC(C)=O,T/C,[5],105 % of control
same,T/C,[6],101 % of control
COC(=O)/C(=C/C=C/c1ccccc1)N=[N+]=[N-],T/C,"dose: 100.0 mg/kg/injection, schedule: Q01DX001 (ip), vehicle: saline with Tween-80",114 % of control
same,T/C,"dose: 200.0 mg/kg/injection, schedule: Q01DX001 (ip), vehicle: saline with Tween-80",105 % of control
same,T/C,"dose: 400.0 mg/kg/injection, schedule: Q01DX001 (ip), vehicle: saline with Tween-80",100 % of control
CCC1OC(=O)C2C(c3ccccc3)=NOC2[C@H]1C (stereo partly drawn),T/C,[10],102 % of control
same,T/C,[11],101 % of control
same,T/C,[12],94 % of control
COC1=C(OC)C(=O)C([Si](C)(C)C)=C(CO)C1=O,T/C,"dose: 7.5 mg/kg/injection, schedule: Q01DX005 (ip), vehicle: saline with Tween-80",103 % of control
same,T/C,"dose: 15.0 mg/kg/injection, schedule: Q01DX005 (ip), vehicle: saline with Tween-80",105 % of control
O=[N+]([O-])c1cc([N+](=O)[O-])c2ccccc2c1NS(=O)(=O)c1ccc(Cl)c(Cl)c1Cl,T/C,[1],103 % of control and 122 % of control
same,T/C,[2],112 % of control
same,T/C,[3],106 % of control
CC(C)CCCC(C)C1CCC2C3CCC4CCC=CC4(C)C3CCC12C (stereo not drawn),T/C,"dose: 30.0 mg/kg/injection, schedule: Q01DX005 (ip), vehicle: Klucel (hydroxypropylcellulose) (HPC)",93 % of control
same,T/C,[5],90 % of control
same,T/C,[6],90 % of control
same,T/C,"dose: 240.0 mg/kg/injection, schedule: Q01DX005 (ip), vehicle: Klucel (hydroxypropylcellulose) (HPC)",91 % of control
CN(NC(=O)C(=O)NCc1ccco1)C(=O)NC1CCCCC1,T/C,[8],103 % of control
same,T/C,[9],100 % of control
same,T/C,"dose: 200.0 mg/kg/injection, schedule: Q01DX005 (ip), vehicle: Klucel (hydroxypropylcellulose) (HPC)",96 % of control
COc1ccc2c(c1)OC(C)(C)[C@H](c1ccc(O)cc1)[C@@H]2c1ccccc1,T/C,[10],90 % of control
same,T/C,[11],90 % of control
Cc1ccc(NC(=S)SCc2ccccc2)cc1Cl,T/C,"dose: 100.0 mg/kg/injection, schedule: Q04DX002 (ip), vehicle: saline",98 % of control
same,T/C,"dose: 200.0 mg/kg/injection, schedule: Q04DX002 (ip), vehicle: saline",100 % of control
same,T/C,"dose: 400.0 mg/kg/injection, schedule: Q04DX002 (ip), vehicle: saline",106 % of control
CC(C)=CCC1=CC(=O)C(CC=C(C)C)=CC1=O,T/C,"dose: 3.12 mg/kg/injection, schedule: Q01DX009 (ip), vehicle: saline with Tween-80",105 % of control
same,T/C,"dose: 6.25 mg/kg/injection, schedule: Q01DX009 (ip), vehicle: saline with Tween-80",118 % of control
same,T/C,"dose: 12.5 mg/kg/injection, schedule: Q01DX009 (ip), vehicle: saline with Tween-80",100 % of control
same,T/C,"dose: 25.0 mg/kg/injection, schedule: Q01DX009 (ip), vehicle: saline with Tween-80",90 % of control and 96 % of control
O=C1CSC(c2ccc(F)c(F)c2)N1c1nncs1 (stereo not drawn),T/C,[10],99 % of control
same,T/C,[11],101 % of control
same,T/C,[12],101 % of control
[Co+3].[NH-]CC[NH-].[NH-]CC[NH-].[NH-]CC[SH2+].[O-][Cl+3]([O-])([O-])O,T/C,"dose: 100.0 mg/kg/injection, schedule: Q04DX003 (ip), vehicle: saline",100 % of control
same,T/C,"dose: 200.0 mg/kg/injection, schedule: Q04DX003 (ip), vehicle: saline",100 % of control
same,T/C,[7],102 % of control
same,T/C,"dose: 800.0 mg/kg/injection, schedule: Q04DX003 (ip), vehicle: saline",99 % of control
